# Source: patent publication US7351857B2, “Methods of using substituted tetralins and indanes” (Janssen Pharmaceutica N.V., priority 2002, dated 2008)
# Target: T1, PPARδ (Homo sapiens, UniProt Q03181)
# T1 sequence (Q03181 171-441 limits assumed): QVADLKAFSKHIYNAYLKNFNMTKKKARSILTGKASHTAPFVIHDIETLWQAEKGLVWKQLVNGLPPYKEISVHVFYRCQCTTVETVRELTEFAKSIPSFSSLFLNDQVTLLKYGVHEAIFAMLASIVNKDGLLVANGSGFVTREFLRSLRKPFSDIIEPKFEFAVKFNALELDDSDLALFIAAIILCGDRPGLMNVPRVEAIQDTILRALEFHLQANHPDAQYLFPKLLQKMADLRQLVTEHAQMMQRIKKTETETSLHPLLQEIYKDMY
# Assay: Transfection assay for PPARδ receptors (PPAR-Gal4 / Gal4-luciferase reporter in HEK293 cells)
# Assay type: cell-based
# Conditions: bracketed values
# Experimental: HEK293 cells were grown in DMEM/F-12 Media supplemented with 10% FBS and glutamine (GIBCOBRL). The cells were co-transfected with DNA for PPAR-Gal4 receptor and Gal4-Luciferase Reporter using the DMRIE-C Reagent. On the following day, the DNA-containing medium were replaced with 5% Charcoal treated FBS growth medium. After six hours, cells were seeded in 96 well plate and incubated at 37° C. in CO2 incubator overnight. Cells were challenged by test compounds and incubated for 24 hours at 37° C. in 5% CO2 incubator. Luciferase activity was assayed using the Steady-Glo Luciferase Assay Kit from Promega. DMRIE-C Reagent was purchased from GIBCO Cat. No. 10459-014. OPTI-MEM I Reduced Serum Medium was purchased from GIBCO Cat. No. 31985. Steady-Glo Luciferase Assay Kit was obtained from Promega Part# E254B.
row,SMILES,EC50 [µM]
1,"CCN(C(=O)Nc1ccc(C(C)(C)C)cc1)C1CCc2cc(SC(C)(C)C(=O)O)c(OC)cc2C1 (centres unmarked) [Example 49, 2-{6-[3-(4-tert-Butylphenyl)1-ethylureido]-3-methoxy-5,6,7,8-tetrahydronaphthalen-2-ylsulfanyl}-2-methyl propionic acid]",> 3

# Same assay, conditions: unbracketed values, PPARδ standard FI = 36.1
row,SMILES,PPARδ FI (fold induction)
1,"CCN(C(=O)Nc1ccc(N(C)C)cc1)C1Cc2ccc(SC(C)(C)C(=O)O)cc2C1 (centres unmarked) [Example 7, 2-{2-[3-(4-Dimethylaminophenyl)-1-ethylureido]indan-5-ylsulfanyl}-2-methylpropionic acid]",0.8
2,"CCCN(C(=O)Nc1cc(C)cc(C)c1)C1Cc2ccc(SC(C)(C)C(=O)O)cc2C1 (centres unmarked) [Example 33, 2-{2-[3-(3,5-Dimethylphenyl)-1-propylureido]indan-5-ylsulfanyl}-2-methylpropionic acid]",0.8
3,"CCCN(C(=O)Nc1ccc(OC(F)(F)F)cc1)C1CCc2ccc(SC(C)(C)C(=O)O)cc2C1 (centres unmarked) [Example 46, 2-Methyl-2-{7-[1-propyl-3-(4-trifluoromethoxyphenyl)ureido}-5,6,7,8-tetrahydronaphthalen-2-ylsulfanyl}propionic acid]",6.0
4,"CCCCCCN(C(=O)Nc1ccc(SC(F)(F)F)cc1)C1Cc2ccc(SC(C)(C)C(=O)O)cc2C1 (centres unmarked) [Example 15, 2-Methyl-2-{2-[1-hexyl-3-(4-trifluoromethylsulfanylphenyl)ureido]indan-5-ylsulfanyl}propionic acid]",1.2
5,"CCN(C(=O)Nc1cccc(OC(F)(F)F)c1)C1Cc2ccc(SC(C)(C)C(=O)O)cc2C1 (centres unmarked) [Example 26, 2-{2-[1-Ethyl-3-(3-trifluoromethoxyphenyl)ureido]indan-5-ylsulfanyl}-2-methylpropionic acid]",2.1
6,"CCCN(C(=O)Nc1ccc(C(F)(F)F)cc1)C1Cc2ccc(SC(C)(C)C(=O)O)cc2C1 (centres unmarked) [Example 35, 2-Methyl-2-{2-[1-propyl-3-(4-trifluoromethylphenyl)ureido]indan-5-ylsulfanyl}-propionic acid]",5.6
7,"CCCN(C(=O)Nc1ccc(OC)cc1)C1Cc2ccc(SC(C)(C)C(=O)O)cc2C1 (centres unmarked) [Example 32, 2-{2-[3-(4-Methoxyphenyl)-1-propylureido]indan-5-ylsulfanyl}-2-methylpropionic acid]",1.5
8,"CCN(C(=O)Nc1ccc(OC(F)(F)F)c(Br)c1)C1Cc2ccc(SC(C)(C)C(=O)O)cc2C1 (centres unmarked) [Example 25, 2-{2-[3-(3-Bromo-4-trifluoromethoxyphenyl)-1-ethylureido]indan-5-ylsulfanyl}-2-methylpropionic acid]",4.5
9,"CC(C)(Sc1ccc2c(c1)CC(N(CCCC1CCCC1)C(=O)Nc1ccccc1)C2)C(=O)O (centres unmarked) [Example 37, 2-{2-[1-(3-Cyclopentylpropyl)-3-phenylureido]indan-5-ylsulfanyl}-2-methylpropionic acid]",1.9
10,"C=CCCCN(C(=O)Nc1ccc(OC(F)(F)F)cc1)C1Cc2ccc(SC(C)(C)C(=O)O)cc2C1 (centres unmarked) [Example 19, 2-Methy-2-{2-[1-pent-4-enyl-3-(4-trifluoromethoxyphenyl)ureido]indan-5-ylsulfanyl}propionic acid]",1.4
11,"CC(C)(Sc1ccc2c(c1)CC(N(CCCC1CCCC1)C(=O)Nc1ccc(OC(F)(F)F)cc1)C2)C(=O)O (centres unmarked) [Example 28, 2-{2-[1-(3-Cyclopentylpropyl)-3-(4-trifluoromethoxyphenyl)ureido]indan-5-ylsulfanyl}-2-methylpropionic acid]",8.2
12,"CCCCCN(C(=O)Nc1ccc2ccccc2c1)C1Cc2ccc(SC(C)(C)C(=O)O)cc2C1 (centres unmarked) [Example 39, 2-Methyl-2-[2-(3-naphthalen-2-yl-1-pentylureido)indan-5-ylsulfanyl]propionic acid]",9.3

# Target: T2, PPARγ (Homo sapiens, UniProt P37231)
# T2 construct: Following the challenge of the preadipocytes, cells may be lysed with lysis buffer; endogenous in cells; host or cells: preadipocytes
# T2 sequence (P37231 1-505): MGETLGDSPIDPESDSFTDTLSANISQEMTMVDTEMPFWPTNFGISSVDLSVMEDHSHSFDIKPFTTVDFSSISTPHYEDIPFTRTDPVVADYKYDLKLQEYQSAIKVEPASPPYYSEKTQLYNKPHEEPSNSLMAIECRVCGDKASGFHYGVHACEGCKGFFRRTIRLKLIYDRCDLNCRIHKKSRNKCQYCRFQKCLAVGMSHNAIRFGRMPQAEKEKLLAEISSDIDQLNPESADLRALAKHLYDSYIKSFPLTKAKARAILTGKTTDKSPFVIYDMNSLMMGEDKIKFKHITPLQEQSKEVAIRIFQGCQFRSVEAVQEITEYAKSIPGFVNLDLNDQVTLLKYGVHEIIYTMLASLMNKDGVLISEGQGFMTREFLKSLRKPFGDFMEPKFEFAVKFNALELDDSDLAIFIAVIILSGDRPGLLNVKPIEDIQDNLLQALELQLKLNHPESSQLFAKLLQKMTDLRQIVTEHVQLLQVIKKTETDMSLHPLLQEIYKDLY
# Assay: aP2 assay for PPAR gamma agonists (bDNA aP2 mRNA in preadipocytes)
# Assay type: cell-based
# Conditions: unbracketed values; PPARγ standard FI = 70.3
# Experimental: The procedure is described in detail in Burris et al., Molecular Endocrinology, 1999, 13:410, which is hereby incorporated by reference in its entirety, and aP2 assay results of agonist intrinsic activity may be presented as fold increase over vehicle in induction of aP2 mRNA production.
# Twenty-four hours after the initial seeding of the 96-well plates by hand (around 20,000/well), the differentiation assay may be initiated. Medium may be removed and replaced with 150 μl of differentiation medium containing vehicle (DMSO) or test compounds. Cells may be returned to incubator for 24 hours culture. At the termination of the challenge, medium may be removed and 100 ul of lysis buffer may be added to initiate the bDNA aP2 mRNA assay. The branched DNA assay may be performed according to the manufacturer's protocol (Bayer Diagnostics; Emeryville, Calif.). Result may be expressed as the fold increase of aP2 mRNA production activated over vehicle controls. EC50's and Emax may be determined by non-linear regression with a sigmoidal fit curve.
# Following the challenge of the preadipocytes, cells may be lysed with lysis buffer (Bayer Diagnostics) containing the aP2 oligonucleotides. After a 15 minute incubation at 53° C. or 30 minutes at 37° C. incubator, 70 ul of the lysis buffer from each well may be added to a corresponding capture well (preincubated with 70 ul of blocking buffer (Bayer Diagnostics)). The capture plate may be incubated overnight at 53° C. in a plate incubator (Bayer Diagnostics). After this incubation, the bDNA and labeled probes may be annealed as directed by the manufacturer. Following a 30-minute incubation with the luminescent alkaline phosphatase substrate, dioxitane, the luminescence may be quantitated in a Dynex MLX microtiter plate luminometer. Oligonucleotide probes designed to anneal to the aP2 mRNA and function in the bDNA mRNA detection system are designed with ProbeDesigner software (Bayer Diagnostics). This software package analyzes a target sequence of interest with a series of algorithms in order to determine which regions of the sequence can perform as locations for capture, label, or spacer probe annealing. The sequences of the oligonucleotides are as follows: […]
row,SMILES,PPARγ FI (fold induction)
1,"CC(C)CCN(C(=O)Nc1ccc(OC(F)(F)F)cc1)C1Cc2ccc(SC(C)(C)C(=O)O)cc2C1 (centres unmarked) [Example 20, 2-Methyl-2-{2-[1-(3-methylbutyl)-3-(4-trifluoromethoxyphenyl)ureido]indan-5-ylsulfanyl}-2-methylpropionic acid]",0.44
2,"CCCCCN(C(=O)Nc1ccc(C(C)C)cc1)C1Cc2ccc(SC(C)(C)C(=O)O)cc2C1 (centres unmarked) [Example 10, 2-{2-[3-(4-Isopropylphenyl)-1-(pentyl)ureido]indan-5-ylsulfanyl}-2-methylpropionic acid]",5.1
3,"CC(C)CCN(C(=O)Nc1ccc(C(C)C)cc1)C1Cc2ccc(SC(C)(C)C(=O)O)cc2C1 (centres unmarked) [Example 21, 2-{2-[3-(4-Isopropylphenyl)-1-(3-methylbutyl)ureido]indan-5-ylsulfanyl}-2-methylpropionic acid]",0.05
4,"CCCN(C(=O)Nc1ccc(OC(F)(F)F)cc1)C1Cc2ccc(SC(C)(C)C(=O)O)cc2C1 (centres unmarked) [Example 16, 2-Methyl-2-{2-[1-propyl-3-(4-trifluoromethoxyphenyl)ureido]indan-5-ylsulfanyl}propionic acid]",0.37
5,"CCCCCN(C(=O)Nc1ccc(C(C)(C)C)cc1)C1Cc2ccc(SC(C)(C)C(=O)O)cc2C1 (centres unmarked) [Example 11, 2-{2-[3-(4-tert-butylphenyl)-1-(pentyl)ureido]indan-5-ylsulfanyl}-2-methylpropionic acid]",6.1
6,"CCN(C(=O)Nc1ccc(SC(F)(F)F)cc1)C1Cc2ccc(SC(C)(C)C(=O)O)cc2C1 (centres unmarked) [Example 4, 2-{2-[1-Ethyl-3-(4-trifluoromethylsulfanylphenyl)ureido]indan-5-ylsulfanyl}-2-methylpropionic acid]",3.7
7,"CCCCCCN(C(=O)Nc1ccc(C(C)C)cc1)C1Cc2ccc(SC(C)(C)C(=O)O)cc2C1 (centres unmarked) [Example 13, 2-{2-[3-(4-Isopropylphenyl)-1-(hexyl)ureido]indan-5-ylsulfanyl}-2-methylpropionic acid]",1.2
8,"CCCCCN(C(=O)Nc1ccc(-c2ccccc2)cc1)C1Cc2ccc(SC(C)(C)C(=O)O)cc2C1 (centres unmarked) [Example 12, 2-[2-(3-Biphenyl-4-yl-1-pentylureido)indan-5-ylsulfanyl]-2-methylpropionic acid]",11
9,"CC(C)(Sc1ccc2c(c1)CC(NC(=O)Nc1ccc(OC(F)(F)F)cc1)C2)C(=O)O (centres unmarked) [Example 18, 2-Methyl-2-{2-[3-(4-trifluoromethoxyphenyl)ureido]indan-5-ylsulfanyl}propionic acid]",0.31
10,"CCCCN(C(=O)Nc1ccc(SC(F)(F)F)cc1)C1Cc2ccc(SC(C)(C)C(=O)O)cc2C1 (centres unmarked) [Example 17, 2-Methyl-2-{2-[1-butyl-3-(4-trifluoromethylsulfanylphenyl)ureido]indan-5-ylsulfanyl}propionic acid]",0.43
